The values below come from patent publication US9044437B2, “Method for treating alzheimer's disease using pharmacological chaperones to increase the activity of gangliosidases” (Amicus Therapeutics, Inc., priority 2009, dated 2015).

A word on the IC50: it is the point on the concentration scale where inhibition reaches its midpoint. By Ki is commonly meant the dissociation constant of the complex between target and ligand, obtained from inhibition or displacement.

Where two headings read alike, the source gives them in different places.

Assay [1] deals with T1, Neu 1 (Homo sapiens, UniProt Q99519). As to conditions: marked *: Values reported in the literature; cited from earlier work.
Assay [2] deals with sAPPα. Put plainly: sAPPα shedding by N2A mouse neuroblastomas (22C11 immunoblot of media). The note with it: 10 μM, 3 days. It is filed as cell-based. The method, then:
(§1) The data shown in FIG. 4 was generated as follows. N2A mouse neuroblastomas were treated for 3 days either with no compound or with 10 μM AdDNJ, 10 μM NGT or 10 μM DGJ. The cells were scraped, harvested by centrifugation, and the cell pellet was solubilized using RIPA buffer (1% TX100, 0.5% Taurodeoxycholate, and 0.1% SDS in TBS plus protease inhibitors). The cell lysate was immunoblotted using a rabbit polyclonal antibody specific for HexB (Abcam). The levels of sAPPα were determined by immunoblotting a small fraction (30 μl) of the growth media using 22C11 antibody (Millipore).
(§2) FIG. 4A) Treatment of N2A mouse neuroblastomas with 10 μM NGT and AdDNJ increased cellular levels of wild-type β-Hex while deoxygalactonojirimycin (DGJ), a pharmacological chaperone for the lysosomal enzyme acid α-galactosidase, had no effect on β-Hex levels.
On the technique in general: A western blot detects proteins with antibodies after separation by electrophoresis.

Assay [3] concerns the target T2, wild-type β-Hex (Mus musculus, UniProt P20060).
T2 construct: increase in endogenous wild-type β-hexosaminidase levels and sAPPα shedding in N2A mouse neuroblastomas; endogenous in cells; host or cells: N2A mouse neuroblastoma cells
T2 sequence (P20060 32-536): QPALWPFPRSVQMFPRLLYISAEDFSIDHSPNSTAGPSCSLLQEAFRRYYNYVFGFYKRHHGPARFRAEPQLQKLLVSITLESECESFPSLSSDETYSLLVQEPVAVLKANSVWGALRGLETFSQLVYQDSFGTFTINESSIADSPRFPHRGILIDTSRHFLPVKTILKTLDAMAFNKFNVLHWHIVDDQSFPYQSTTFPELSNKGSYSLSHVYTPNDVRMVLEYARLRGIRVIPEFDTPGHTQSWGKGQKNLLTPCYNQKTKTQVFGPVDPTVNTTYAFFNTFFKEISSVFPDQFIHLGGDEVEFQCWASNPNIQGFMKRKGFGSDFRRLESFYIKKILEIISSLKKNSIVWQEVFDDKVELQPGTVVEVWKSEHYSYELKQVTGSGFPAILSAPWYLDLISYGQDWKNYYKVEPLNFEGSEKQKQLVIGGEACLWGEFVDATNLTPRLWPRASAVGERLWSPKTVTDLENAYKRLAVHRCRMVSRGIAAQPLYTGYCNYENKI
The assay is described as follows: Cellular β-Hex levels in N2A mouse neuroblastomas (HexB immunoblot). It is filed as cell-based. As to conditions: 10 μM, 3 days. The method, then: as §1, §2

In assay [4] the target is B-Hex (β-hexosaminidase, Hex A/B). The assay is described as follows: Comparative selectivity of pharmacological chaperones: B-Hex inhibition. As to conditions: marked **: Values reported as Ki's; read-out: IC50 B-Hex, values reported as Ki's. The class given is biochemical.
The target in assay [5] is T3, Neu 3 (Homo sapiens, UniProt Q9UQ49).
T3 sequence (Q9UQ49 1-428): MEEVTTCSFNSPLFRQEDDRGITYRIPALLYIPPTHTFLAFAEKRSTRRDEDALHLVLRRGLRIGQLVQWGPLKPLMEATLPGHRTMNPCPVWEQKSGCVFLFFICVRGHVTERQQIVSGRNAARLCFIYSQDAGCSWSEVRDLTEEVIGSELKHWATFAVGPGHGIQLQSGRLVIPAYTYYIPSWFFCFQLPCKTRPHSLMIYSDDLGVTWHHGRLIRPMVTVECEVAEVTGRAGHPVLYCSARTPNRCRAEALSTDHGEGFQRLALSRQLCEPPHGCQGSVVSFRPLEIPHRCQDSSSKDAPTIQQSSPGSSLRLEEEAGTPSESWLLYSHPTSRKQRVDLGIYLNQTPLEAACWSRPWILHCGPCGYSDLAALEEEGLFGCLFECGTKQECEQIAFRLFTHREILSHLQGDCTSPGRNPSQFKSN
As to conditions: marked *: Values reported in the literature; cited from earlier work.

Assay [6] addresses T4, wild-type endogenous neuraminidase 1 (Homo sapiens, UniProt Q99519).
T4 construct: selectively increases wild-type endogenous neuraminidase-1 levels in fibroblasts; endogenous in cells; host or cells: healthy control fibroblasts
Put plainly: Neuraminidase 1 levels in fibroblasts derived from healthy individuals. As to conditions: 5 days. It is filed as cell-based. As for the experimental part:
The data shown in FIG. 7 was generated as follows. Healthy control fibroblasts were treated for 5 days either with NB-DANA or IFG. The cells were scraped, harvested by centrifugation, and the cell pellet was solubilized using RIPA buffer (1% TX100, 0.5% Taurodeoxycholate, and 0.1% SDS in TBS plus protease inhibitors). The cell lysate was immunoblotted using a polyclonal antibody specific for Neu1 (Novus).
(A) The pharmacological chaperone NB-DANA increased wild-type endogenous neuraminidase 1 levels by up to 2 fold. […] Fibroblasts derived from healthy individuals were treated with NB-DANA or IFG for 5 days and enzyme activity was measured in cell lysates using the substrate NANA-4-MU. Enzyme activity was expressed as nmol of 4-MU generated per mg protein per hour.

Assay [7] concerns sAPPα. The assay is described as follows: sAPPα production by fibroblasts treated with NB-DGJ (6E10 immunoblot). It is filed as cell-based, human. As to conditions: Sandhoff fibroblasts, 5 days treatment. The method, then:
The data shown in FIG. 3 was generated as follows. A wild type(healthy) fibroblast cell line (CRL2076; Coriell) and a fibroblast cell line from a Sandhoff patient (GM11707; Coriell) were cultured overnight in DMEM (plus 10% FBS) growth medium, followed by an overnight incubation in serum free media. Secreted proteins were collected by TCA precipitation (12.5%) of the growth media and analyzed by immunoblotting using 6E10 antibody (Covance) to determine the levels of sAPPα. […] To measure levels of secreted Aβ40 in media, fibroblasts (CRL2076 & GM11707) were cultured overnight in DMEM (plus 10% FBS) growth medium (3 wells/sample; 1 ml media/well), followed by an overnight incubation in serum free media. The 3 wells/sample were combined and mixed with 0.3 ml methanol, 30 μl 10% TFA (Trifluoroacetic acid). The samples were pre-concentrated using a Sepak C18 column (Waters) and then used in an ELISA assay (Covance) to determine the levels of Aβ40. To determine the levels of full length APP, fibroblasts (CRL2076 & GM11707) were cultured overnight in DMEM (plus 10% FBS) growth medium. […] Secreted proteins were collected by TCA precipitation (12.5%) of the growth media and analyzed by immunoblotting using 6E10 antibody (Covance) to determine the levels of sAPPα. […]

Assay [8] addresses T1, Neu 1. Put plainly: Comparative selectivity: Neu 1 inhibition. The class given is biochemical.
The target of assay [9] is T5, Neu 4 (Homo sapiens, UniProt Q8WWR8).
T5 sequence (Q8WWR8 1-484): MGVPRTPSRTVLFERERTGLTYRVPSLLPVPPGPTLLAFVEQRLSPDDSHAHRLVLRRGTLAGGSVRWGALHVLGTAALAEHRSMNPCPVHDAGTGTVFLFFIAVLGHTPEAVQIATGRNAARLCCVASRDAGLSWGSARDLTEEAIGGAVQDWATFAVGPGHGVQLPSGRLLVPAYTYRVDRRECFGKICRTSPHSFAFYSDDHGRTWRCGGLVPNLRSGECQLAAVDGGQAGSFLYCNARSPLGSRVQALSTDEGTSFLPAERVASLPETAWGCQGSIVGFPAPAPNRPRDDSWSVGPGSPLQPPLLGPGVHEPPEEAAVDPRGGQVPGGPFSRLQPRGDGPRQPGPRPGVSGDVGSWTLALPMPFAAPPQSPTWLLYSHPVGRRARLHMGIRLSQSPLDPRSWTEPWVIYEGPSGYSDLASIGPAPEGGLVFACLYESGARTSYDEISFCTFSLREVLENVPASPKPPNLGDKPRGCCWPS
The note with it: marked *: Values reported in the literature; cited from earlier work.

For assay [10], the target named is Neu 2 (Homo sapiens, UniProt Q9Y3R4). As to conditions: marked *: Values reported in the literature; cited from earlier work.
Chain of Neu 2 (Q9Y3R4 whole entry): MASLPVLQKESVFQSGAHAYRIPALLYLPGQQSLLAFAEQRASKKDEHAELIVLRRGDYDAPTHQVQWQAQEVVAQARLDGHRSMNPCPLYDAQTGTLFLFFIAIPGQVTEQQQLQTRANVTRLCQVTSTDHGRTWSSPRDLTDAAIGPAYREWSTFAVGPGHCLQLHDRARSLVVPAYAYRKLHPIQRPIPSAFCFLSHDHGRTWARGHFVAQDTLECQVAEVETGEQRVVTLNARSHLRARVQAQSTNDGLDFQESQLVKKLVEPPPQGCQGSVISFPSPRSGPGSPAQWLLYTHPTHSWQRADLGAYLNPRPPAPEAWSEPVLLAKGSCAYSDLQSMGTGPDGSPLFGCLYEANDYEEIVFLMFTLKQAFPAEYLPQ

For “5-(acetylamino)-4-[(aminoiminomethyl)-amino]-2,6-anhydro-3,4,5-trideoxy-D-glycero-D-galacto-non-2-enonic acid [Zanamivir]”, in assay [1], the IC50 is 2.71 mM.

For `CC(=O)N[C@H]1CN[C@H](CO)[C@@H](O)[C@@H]1O` [AdDNJ, 2-acetamido-1,2-dideoxynojirimycin], the “shedding of neurotrophic sAPPα” value in assay [2] is reported as “increased”. Also, the “cellular levels of wild-type β-Hex” value in [3] is “increased”. In assay [4], the Ki turned out to be 700 nM.

In the case of `CC(=O)N[C@H]1[C@H]([C@H](O)[C@H](O)CO)OC(C(=O)O)=C[C@@H]1O` [DANA, 2-deoxy-2,3-dehydro-N-acetylneuraminic acid], in assay [5], the concentration for half-maximal inhibition (IC50) is 61 µM.

Take `OC[C@H]1NC[C@H](O)[C@@H](O)[C@H]1O` [DGJ, deoxygalactonojirimycin, reference compound]: the “cellular levels of wild-type β-Hex” value in assay [3] is on record as “no effect”.

As for `OC[C@H]1CNC[C@@H](O)[C@@H]1O` [IFG, isofagomine, reference compound], the “effect on wild-type neuraminidase 1 levels” value in assay [6] is listed as “does not increase”.

In the case of `CCCCN1C[C@H](O)[C@@H](O)[C@@H](O)[C@H]1CO` [N-butyl-deoxygalactonojirimycin], the “increase in production of sAPPα” value in assay [7] was 35-40%.

As to `CCCCOC(=O)C1=C[C@H](O)[C@@H](NC(C)=O)[C@H]([C@H](O)[C@H](O)CO)O1` [NB-DANA, n-butyl-2-deoxy-2,3-dehydro-N-acetylneuraminic acid], the 50% inhibitory concentration (IC50) in [8] was 10 µM; in assay [9], > 1000 µM; in assay [10], > 1000 µM; in assay [5], > 1000 µM. Also, the “increase of wild-type endogenous neuraminidase 1 levels” value in [6] was “up to 2 fold”.

Regarding `CC(=O)N[C@H]1[C@H]([C@H](O)[C@H](O)CO)OC(C(=O)Oc2ccccc2)=C[C@@H]1O` [Phenyl DANA, Phenyl 2-deoxy-2,3-dehydro-N-acetylneuraminic acid, reference compound], the 50% inhibitory concentration (IC50) in assay [1] was 0.013 mM; in assay [9], 810 µM; in [10], 865 µM; in [5], 320 µM.
